In test [1] the test system is caspase-3 activity in DU 145 cells. Put plainly: Caspase-3 colorimetric activity assay, DU 145. The class given is cell-based, human. How it is done:
Caspase-3 activity was determined using the caspase-3 colorimetric assay kit (Sigma-Aldrich) according to manufacturer’s protocol. The assay is based on spectrophotometric detection of p-nitroanilide (pNA) a colored molecule, after its cleavage from the labeled substrate DEVD-pNA by the activity of caspase-3 enzyme. PC-3 and DU 145 cells were treated with MS17 at different concentrations (EC50, 2 × EC50, 3 × EC50) at various time points, 6, 12, 24, 48 and 72 h as appropriate. Following treatment, cells were washed with PBS and suspended with lysis buffer (50 mM HEPES, pH 7.4, 5 mM CHAPS, 5 mM DTT) for 30 min on ice at the concentration of 10^7 cells per 100 µL buffer. Cells were then spun for 30 min at 16,000× g, 4 °C. Protein lysate concentrations were measured based on the Bradford assay method using the Cayman Chemical protein determination kit (Cayman Chemical Company, Ann Arbor, MI, USA) based on the manufacturer’s protocol. Assay was performed on a 96-well micro-titer plate by adding equal amount of protein lysate (~100 µg) into wells containing the assay buffer (20 mM HEPES pH 7.4, 0.1% CHAPS, 5 mM DTT, 2 mM EDTA). Reaction was started by the addition of 10 µL of substrate Ac-DEVD-pNA (2 mM). The effect of Ac-DEVD-CHO, a caspase-3 inhibitor was also studied simultaneously on caspase-3 activity. Ten microliter of the inhibitor (200 µM) was added into the wells containing the protein lysate, assay buffer and the substrate. Caspase-3 activity was measured upon the release of pNA molecule, a pale yellow colored product using the micro-plate ELISA reader (Bio-Rad) at the wavelength of 405 nm. Relative caspase-3 activity was expressed as absorbance of enzyme activity compared with the control (untreated cells/DMSO only) based on the equation below: Relative caspase 3 activity= Absorbance of treated cells /Absorbance of control

The subject of test [2] is DU 145 cells. Briefly: AO/EB double staining, morphology and quantification of apoptotic and necrotic cells, DU 145. It is filed as cell-based, human. Particulars: for necrotic cells: approximate. On the procedure:
Cell morphological changes were assessed by the differential staining DNA-intercalate fluorescent dyes acridine orange (AO) and ethidium bromide (EB). Cells (3 × 10^5) were seeded in a 6-well tissue culture plates, treated with MS17 at various concentrations (EC50, 2 × EC50, 3 × EC50) and incubated for 12, 24, 48 and 72 h time intervals. After incubation, cell pellets were suspended in 50 µL of cold PBS. To each samples, 10 µL of cell suspension was added with 1 µL of AO/EB dye mixture (1 part of 100 µg/mL of AO in PBS; 1 part of 100 µg/mL of EB in PBS) prior to microscopic examination. Ten microliter of the cell suspension mixed with the dye mixture was placed on a glass microscopic slide covered with a cover slip and was observed and photographed with a fluorescence microscope using a fluorescein filter (BX41, Olympus, Center Valley, PA, USA). A minimum of 200 total targeted cells were counted per sample and the percentage of cells from each population (viable, early apoptosis, late apoptosis and necrosis) was calculated. The experiment was conducted in triplicates. Untreated cells containing DMSO alone were used as negative control.

Test [3] relates to WI-38 (human lung fibroblast cells). Briefly: MTT cytotoxicity assay, normal WI-38. It is filed as cell-based. Particulars: normal cell line, 72 h treatment, mean ± SD, read-out: EC50 Values (µM) of Compounds on Cell Lines WI-38. On the procedure: (§1) Cell viability was determined by the MTT [3-(4,5-dimethylthiazol-2-yl)-2,5-diphenyltetrazolium bromide] assay, as previously described by Mosmann with modifications. Briefly, cells were detached from the tissue culture flask and pelleted by centrifugation at 1000 rpm for 5 min. Then, the density of the viable cells was counted using a haemocytometer. Cells were then plated in a 96-well flat bottom micro-titer plate (Nunc) at a concentration of 10^4 cells/mL and incubated in a 5% CO2 incubator at 37 °C overnight to allow the cells to adhere to the bottom of the wells. After 24 h, the media was aspirated off and replaced with fresh media containing sample compounds (curcumin and curcumin analogues) of seven different concentrations ranging from 1.56 µM–100 µM and incubated at 37 °C, 5% CO2 for 72 h. Separately, the sample compounds were prepared in a stock solution of 50 mM in 100% dimethyl sulfoxide (DMSO, Molecular Biology Grade, Sigma-Aldrich, St. Louis, MO, USA) and diluted in the culture media to a working concentration of 200 µM. Curcumin, the parent compound which was used as the positive control was also prepared in the similar manner. A two-fold serial dilution was done for each sample in triplicates down the columns of the plate, yielding a final volume and concentration of 100 µL in 0.2% DMSO in each wells. Following treatment, 50 µL MTT solutions (0.5 mg/mL in PBS) was added to each well and incubated for another 4 h at 37 °C in a humidified 5% CO2 incubator. The supernatant was replaced with 100 µL of DMSO and the optical density (OD) was measured at 570/650 nm using a micro-plate ELISA reader (Bio-Rad Laboratories, Hercules, CA, USA). The percentage of viable cells was calculated based on the ratio of the corrected absorbance of sample-treated cells to the corrected absorbance of the control (0.2% DMSO-treated cells) multiplied by 100. The percentage of cell viability was determined as follows: % Cell viability= OD of treated cells /OD of control ×100
(§2) For each compound tested, the EC50 value was generated from the log dose-response curves for each cell line using the Graphpad Prism version 5.04 for Windows (Graphpad Software, La Jolla, CA, USA). […] Cytotoxicity of each tested compound is expressed as the EC50 value. Based on the EC50 values, selectivity index (SX) value was also determined. Selectivity index is a special parameter applied as a selectivity indicator of tested compounds towards cancer cells. The SX represents the ratio of EC50 value obtained in toxicity testing using the normal cell lines to the EC50 values of the toxicity testing of the cancer cells, and then multiplied by 100. All the compounds were assessed for their potential toxicity against normal, non-cancerous cells. […] The SX values were calculated using the following equation: SX = EC50 (normal cells)/EC50 (cancer cells) × 100
On the technique in general: Formazan colour is commonly taken as a measure of viable cells.

Test [4] concerns WRL 68 (human epithelial hepatocytes). Put plainly: MTT cytotoxicity assay, normal WRL 68. The class given is cell-based. Particulars: WRL68, normal cell line, 72 h treatment, mean ± SD, read-out: EC50 Values (µM) of Compounds on Cell Lines WRL-68. How it is done: as §1, §2
For test [5], the system named is DU 145 cells. Put plainly: MTT cytotoxicity (cell viability) assay, DU 145. The class given is cell-based, human. On the procedure: as §1, §2

A word on the EC50: it is the concentration needed to bring the measured effect to its halfway point.

Molecules are shown by their SMILES. Entries after “also recorded” stand apart in the source; their conditions may differ.

`O=C(C=Cc1ccccc1O)C=Cc1ccccc1O` [MS17, 1,5-bis(2-hydroxyphenyl)-1,4-pentadiene-3-one]: in test [1] (DU 145, 6, 24, 48 and 72 h), the “relative caspase-3 activity, differences between concentrations” value is recorded as “no significant differences of caspase-3 activity”. Besides, the “relative caspase-3 activity (treated vs untreated)” value in test [1] (DU 145, 12 h, significant at 8.4 and 12.6 µM compared to 4.2 µM) was “increased significantly; also recorded: increase in caspase-3 activity”. In addition, the necrotic cells entry with DU 145 cells [2] (DU 145, 4.2 µM, 48 h) was “approximately 10%”; with DU 145 cells [2] (DU 145, all examined doses, 24 h) it was less than 5%. The “morphological observation of cell nuclei (AO/EB)” value in the test with DU 145 cells [2] (DU 145, MS17-treated vs untreated) is “typical signs of apoptosis such as cell shrinkage, formation of apoptotic bodies and membrane blebbing”. Further, the EC50 in test [3] is 5.2 ± 1.2 µM; in test [4] it was 5.5 ± 0.5 µM; with DU 145 cells [5] (Homo sapiens, DU-145, MTT, 72 h treatment, mean ± SD, three experiments, read-out: EC50 Values (µM) of Compounds on Cell Lines DU 145) it was 4.1 ± 0.8 µM. The “dose from which decrease in cell viability is significant” value with DU 145 cells [5] (DU 145, MTT, vs untreated) was determined as 6.3 µM. For the same compound, in the test on DU 145 cells [5] (SX = EC50 (WI-38)/EC50 (DU 145) × 100), the “Selective index (SX) WI-38 vs DU 145” value was 126.3. Further, the “Selective index (SX) WRL68 vs DU 145” value in the test with DU 145 cells [5] (SX = EC50 (WRL68)/EC50 (DU 145) × 100) turned out to be 134.3.

Source of the values: PMC6272399, “Anti-Proliferative Effect and Induction of Apoptosis in Androgen-Independent Human Prostate Cancer Cells by 1,5-Bis(2-hydroxyphenyl)-1,4-pentadiene-3-one” (Molecules, 2015).
